The values below are quoted from earlier work in patent publication US20100144855A1, “APPLICATION OF SEDOISOPROSAN FOR PREPARATION OF MEDICINE FOR TREATMENT OF HUMAN HBeAg POSITIVE CHRONIC HEPATITIS B” (priority 2008, published 2010).

In one series the test system is HBsAg and HBeAg. Particulars: animal experiments; cited from earlier work.
The next series relates to lymphocytes. Particulars: sedoisoprosan associated with ConA and LPS, in vitro; cited from earlier work.

SMILES strings stand for the structures.

Take `CC1(C)OC2C3COC(CO)(O3)C(O)C2O1` (stereo not drawn) [sedoisoprosan, isopropylidene sedoheptulosan]: in the series with HBsAg and HBeAg, the “secretion of HBsAg and HBeAg” value was “inhibit”. Besides, in the series on lymphocytes, the “mitogenic activity of ConA and LPS” value is “enhance”; the transformation of lymphocytes result is listed as “promote”.
